Source: patent US20160331775A1, “E-SELECTIN INHIBITION WORKS IN COMBINATION WITH LOW-MOLECULAR WEIGHT HEPARIN TO DECREASE VENOUS THROMBOSIS AND BLEEDING RISK” (THE REGENTS OF THE UNIVERSITY OF MICHIGAN, priority 2015, published 2016)

Test: tail vein bleeding time
Format: in vivo, mouse
Conditions: GMI-1271 alone, 20/kg IP BID; non-treated controls 53.8±7.5; not significantly elevated

tail bleeding time: 67.00 ± 44 s
SMILES: CC[C@H]1C[C@@H](C(=O)NCCNC(=O)CCOCCOCCOCCOCCOCCOCCOCCOCCOCCOCCOCCOC)C[C@@H](O[C@@H]2O[C@H](CO)[C@H](O)[C@H](O[C@@H](CC3CCCCC3)C(=O)[O-])[C@H]2NC(C)=O)[C@@H]1O[C@@H]1O[C@@H](C)[C@@H](O)[C@@H](O)[C@@H]1O.[Na+] [GMI-1271]
